Earlier results, collected in US20080085301A1, “Method for transdermal administration of antimicrobial medications” (priority 2005, published 2008).

Tested on: Streptococcus pneumoniae
Conditions: based on Streptococcus pneumoniae; in vitro

[H]/N=C(/N)N[C@H]1[C@H](O)[C@@H](O)[C@H](O[C@@H]2O[C@@H](C)[C@](O)(C=O)[C@H]2O[C@@H]2O[C@@H](CO)[C@H](O)[C@@H](O)[C@@H]2NC)[C@@H](N/C(N)=N\[H])[C@@H]1O [Streptomycin]
Approximate MIC: ~2 µg/mL

O=C(N[C@H](CO)[C@H](O)c1ccc([N+](=O)[O-])cc1)C(Cl)Cl [Chloramphenicol]
Approximate MIC: ~4 µg/mL

CC(=O)NC[C@H]1CN(c2ccc(N3CCOCC3)c(F)c2)C(=O)O1 [Linezolid]
Approximate MIC: ~2 µg/mL

CN[C@H](CC(C)C)C(=O)N[C@H]1C(=O)N[C@@H](CC(N)=O)C(=O)N[C@H]2C(=O)N[C@H]3C(=O)N[C@H](C(=O)N[C@H](C(=O)O)c4cc(O)cc(O)c4-c4cc3ccc4O)[C@H](O)c3ccc(c(Cl)c3)Oc3cc2cc(c3O[C@@H]2O[C@H](CO)[C@@H](O)[C@H](O)[C@H]2O[C@H]2C[C@](C)(N)[C@H](O)[C@H](C)O2)Oc2ccc(cc2Cl)[C@H]1O [Vancomycin]
Approximate MIC: ~16 µg/mL

N[C@@H]1CON=C1O [Cycloserine]
Approximate MIC: ~32 µg/mL

CO[C@H]1/C=C/O[C@@]2(C)Oc3c(C)c(O)c4c(O)c(c(/C=N/N5CCN(C)CC5)c(O)c4c3C2=O)NC(=O)/C(C)=C\C=C\[C@H](C)[C@H](O)[C@@H](C)[C@@H](O)[C@@H](C)[C@H](OC(C)=O)[C@@H]1C [Rifampin]
Approximate MIC: ~0.5 µg/mL

C[C@@H](O)[C@H]1C(=O)N2C(C(=O)O)=C(S[C@@H]3CN[C@H](C(=O)N(C)C)C3)[C@H](C)[C@H]12 [Meropenem]
Approximate MIC: ~1 µg/mL

CCCCCCCCCC(=O)N[C@@H](Cc1c[nH]c2ccccc12)C(=O)N[C@H](CC(N)=O)C(=O)N[C@@H](CC(=O)O)C(=O)N[C@@H]1C(=O)NCC(=O)N[C@@H](CCCN)C(=O)N[C@@H](CC(=O)O)C(=O)N[C@H](C)C(=O)N[C@@H](CC(=O)O)C(=O)NCC(=O)N[C@H](CO)C(=O)N[C@@H]([C@H](C)CC(=O)O)C(=O)N[C@@H](CC(=O)c2ccccc2N)C(=O)O[C@@H]1C [Daptomycin]
Approximate MIC: ~0.5 µg/mL
